Results on 15 compounds are retold here after paper PMC10638516 (Acta Pharmaceutica Sinica. B, 2023).

Data set [1] addresses T1, hD2R (Homo sapiens, UniProt P14416). As to the kind of experiment: biochemical. Format: binding. Conditions: for inhibition at 10 µM: read-out: % inhibition at 10 μmol/L hD2.
Data set [2] deals with T2, hD3R (Homo sapiens, UniProt P35462). As to the kind of experiment: biochemical. Format: binding. Conditions: for Ki: Ki hD3, three experiments, means ± SEM; for inhibition at 10 µM: read-out: % inhibition at 10 μmol/L hD3, 10 μmol/L test compound.
The target of data set [3] is T2, hD3R. As to the kind of experiment: ERK1/2 phosphorylation. The data set is classed as cell-based. The note with it: for effect on ERK1/2 phosphorylation mediated by hD3R, compound alone (agonist mode): CHO-hD3R cells, quinpirole at 20 μmol/L; for competitive antagonism of ERK1/2 phosphorylation mediated by D3R: in the presence of 20 μmol/L dopamine.
Data set [4] addresses T1, hD2R. The data set is classed as cell-based.
Data set [5] concerns the target hERG channel (Homo sapiens, UniProt Q12809). Kind of data set: hERG channel automated patch clamp. Format: cell-based.
Data set [6] concerns PC12 cells. As to the kind of experiment: CCK8 cytotoxicity test, PC12. Format: cell-based. The note with it: 24 h.
Data set [7] deals with mice. Kind of data set: Catalepsy test in mice. The data set is classed as in vivo, mouse. The note with it: for Catalepsy peak effect (percent of cataleptic animals) / catalepsy under all tested doses: i.p.; for catalepsy under all tested doses: 23j up to 240 mg/kg, 36a/b/f up to 480 mg/kg.
Data set [8] deals with ICR mice. As to the kind of experiment: Spontaneous locomotor test. The note with it: compounds 30 mg/kg i.p., RPD 1 mg/kg, 15 min.
In data set [9] the test system is ICR mice. As to the kind of experiment: MK-801-induced hyperactivity. Conditions: for inhibition of MK-801-induced hyperactivity at 3 mg/kg: 3 mg/kg i.p.
Data set [10] relates to HEK293T cells. Kind of data set: CCK8 cytotoxicity test, HEK293T. The data set is classed as cell-based. Conditions: 24 h, CCK8, compared with RPD. For orientation: Tetrazolium dyes change colour on reduction, which living cells bring about.
The subject of data set [11] is BV2 cells. Kind of data set: CCK8 cytotoxicity test, BV2. Format: cell-based. The note with it: 24 h, CCK8, compared with RPD.
Data set [12] has as its system mice. As to the kind of experiment: Acute toxicity assay in mice. The data set is classed as in vivo, mouse. Conditions: i.p., up to 600 mg/kg.
The test system of data set [13] is ICR mice. Kind of data set: Apomorphine-induced climbing. Format: in vivo, mouse. The note with it: i.p., apomorphine 1.0 mg/kg s.c.
Data set [14] concerns ICR mice. As to the kind of experiment: Tail suspension test. Format: in vivo, mouse. Conditions: 36b 3, 10, 30 mg/kg, DLX 15 mg/kg.
For data set [15], the system named is ICR mice. Kind of data set: Forced swimming test. Format: in vivo, mouse. The note with it: 36b 3, 10, 30 mg/kg, DLX 15 mg/kg.
Data set [16] concerns the target dopamine D3 receptor. Conditions: read-out: D3R Ki; reference modulators of the pERK assay; cited from earlier work.
[17] abbreviates: hERG inhibition IC50, patch clamp, tested three times.

T1 sequence (P14416 whole entry): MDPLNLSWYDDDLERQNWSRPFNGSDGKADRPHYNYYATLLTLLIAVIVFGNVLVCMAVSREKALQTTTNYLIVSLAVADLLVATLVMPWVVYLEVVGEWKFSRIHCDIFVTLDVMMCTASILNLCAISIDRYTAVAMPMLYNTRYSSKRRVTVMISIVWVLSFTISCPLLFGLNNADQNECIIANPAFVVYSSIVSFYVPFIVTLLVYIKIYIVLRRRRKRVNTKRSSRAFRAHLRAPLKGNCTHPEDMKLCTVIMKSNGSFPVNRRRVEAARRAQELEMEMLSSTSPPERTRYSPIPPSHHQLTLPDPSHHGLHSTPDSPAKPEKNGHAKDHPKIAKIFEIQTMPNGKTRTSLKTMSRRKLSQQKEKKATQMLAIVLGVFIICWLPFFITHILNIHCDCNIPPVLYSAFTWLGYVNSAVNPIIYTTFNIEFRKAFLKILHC
T2 sequence (P35462 whole entry): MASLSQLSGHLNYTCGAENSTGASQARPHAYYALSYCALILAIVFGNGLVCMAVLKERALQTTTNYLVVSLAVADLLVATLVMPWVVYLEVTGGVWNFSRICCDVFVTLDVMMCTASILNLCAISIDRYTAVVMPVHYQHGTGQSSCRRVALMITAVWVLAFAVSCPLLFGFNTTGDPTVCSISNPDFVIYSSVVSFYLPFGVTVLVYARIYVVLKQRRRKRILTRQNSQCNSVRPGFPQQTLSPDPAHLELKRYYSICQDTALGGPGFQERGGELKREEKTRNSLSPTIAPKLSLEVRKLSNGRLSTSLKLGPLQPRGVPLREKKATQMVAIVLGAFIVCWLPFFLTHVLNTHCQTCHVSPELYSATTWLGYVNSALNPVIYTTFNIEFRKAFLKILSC
hERG channel, sequence (Q12809 whole entry): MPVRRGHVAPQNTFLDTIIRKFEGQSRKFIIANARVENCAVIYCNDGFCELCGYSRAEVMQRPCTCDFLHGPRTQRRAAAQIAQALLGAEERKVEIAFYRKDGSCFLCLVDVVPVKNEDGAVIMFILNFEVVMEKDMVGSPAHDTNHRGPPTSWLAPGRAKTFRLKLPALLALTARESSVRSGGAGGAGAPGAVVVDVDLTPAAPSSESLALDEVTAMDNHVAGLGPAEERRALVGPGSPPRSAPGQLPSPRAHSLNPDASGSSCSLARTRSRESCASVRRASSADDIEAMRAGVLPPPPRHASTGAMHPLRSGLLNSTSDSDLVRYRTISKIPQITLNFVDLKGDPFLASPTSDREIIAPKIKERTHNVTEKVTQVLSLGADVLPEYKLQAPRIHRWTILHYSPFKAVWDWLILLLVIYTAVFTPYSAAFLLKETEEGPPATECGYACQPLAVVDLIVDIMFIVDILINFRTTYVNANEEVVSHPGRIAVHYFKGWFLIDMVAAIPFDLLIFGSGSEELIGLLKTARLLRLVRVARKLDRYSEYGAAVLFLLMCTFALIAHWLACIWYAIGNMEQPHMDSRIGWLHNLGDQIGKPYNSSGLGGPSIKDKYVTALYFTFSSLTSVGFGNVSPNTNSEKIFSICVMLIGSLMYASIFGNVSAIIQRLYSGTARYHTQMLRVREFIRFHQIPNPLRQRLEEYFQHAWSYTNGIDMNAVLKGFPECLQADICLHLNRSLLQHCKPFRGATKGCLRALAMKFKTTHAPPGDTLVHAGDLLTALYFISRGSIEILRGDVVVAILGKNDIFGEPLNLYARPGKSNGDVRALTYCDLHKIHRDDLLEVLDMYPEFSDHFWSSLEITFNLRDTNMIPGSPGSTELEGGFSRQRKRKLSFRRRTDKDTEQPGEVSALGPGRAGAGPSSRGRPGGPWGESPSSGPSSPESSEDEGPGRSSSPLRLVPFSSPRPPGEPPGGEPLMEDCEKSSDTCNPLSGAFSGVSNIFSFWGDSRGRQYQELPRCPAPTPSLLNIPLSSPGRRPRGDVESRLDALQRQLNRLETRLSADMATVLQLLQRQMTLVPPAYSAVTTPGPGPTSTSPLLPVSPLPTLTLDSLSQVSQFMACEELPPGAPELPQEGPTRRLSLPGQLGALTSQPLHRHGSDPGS

As usually defined, the Ki is a measure of affinity in units of concentration, obtained from inhibition or displacement. The term IC50 denotes the concentration at which inhibition is half-maximal. Read a low IC50 as greater potency in that assay. Regarding `Cn1c2c(c3ccccc31)CN(CCCCNC(=O)c1cc3ccccc3[nH]1)CC2` [36a], in [1], the Ki is greater than 10 µM and the inhibition at 10 µM came out at 20.9 ± 3.8%. In data set [2], the Ki was found to be 0.0106 ± 0.0045 µM and the inhibition at 10 µM came to 97.6 ± 2%. Moreover, in data set [3], the “effect on ERK1/2 phosphorylation mediated by hD3R, compound alone (agonist mode)” value (“effect … by hD3R, compound alone (agonist mode)” for short) is “no influence” and the “competitive antagonism of ERK1/2 phosphorylation mediated by D3R” value is given as “dose-dependently inhibit”. The “effect on ERK1/2 phosphorylation mediated by hD2R, compound alone (agonist mode)” value (from here on “effect … by hD2R, compound alone (agonist mode)”) in data set [4] was “weak partial agonism”. The compound also came in with an IC50 in [5] (setting [17]) of 1.32 µM. Besides, the “cytotoxicity in PC12 cells” value in data set [6] is given as “significant cytotoxicity at high concentrations”. For the same compound, in data set [7], the “Catalepsy MED i.p. (minimum effective dose)” value is on record as no less than 480.0 mg/kg, the “Catalepsy peak effect (percent of cataleptic animals)” value stood at 0.0% and the “catalepsy under all tested doses” value is “did not elicit catalepsy”. Also, in [8], the “effect on spontaneous locomotion” value was “no influences”. For the same compound, the “inhibition of MK-801-induced hyperactivity at 3 mg/kg” value in data set [9] is on record as “did not show the inhibition activity”.
In the case of `Cn1c2c(c3ccccc31)CN(CCCCNC(=O)c1ccc(-c3ccccc3)cc1)CC2` [36f], in data set [1], the Ki was greater than 10 µM and the inhibition at 10 µM is -20.7 ± 4.9%. In addition, in data set [2], the Ki was determined as 0.0041 ± 0.0003 µM and the inhibition at 10 µM was 104 ± 1.4%. Besides, in data set [3], the “effect … by hD3R, compound alone (agonist mode)” value is recorded as “no influence” and the “competitive antagonism of ERK1/2 phosphorylation mediated by D3R” value is recorded as “dose-dependently inhibit”. Moreover, the “effect … by hD2R, compound alone (agonist mode)” value in data set [4] is given as “no functional affects”. The IC50 in data set [5] (hERG IC50, patch clamp) is greater than 40 µM. The compound also yielded an IC50 in [5] (setting [17]) of 46.9 µM. Also, the “effect on the viability of HEK293T” value in [10] is “less effects”. In addition, the “effect on the viability of BV2” value in [11] is listed as “less effects”. Besides, the “acute toxicity / tolerance” value in data set [12] is recorded as “well tolerant”. In data set [7], the “Catalepsy MED i.p. (minimum effective dose)” value was no less than 480.0 mg/kg, the “Catalepsy peak effect (percent of cataleptic animals)” value stood at 0.0% and the “catalepsy under all tested doses” value is given as “did not elicit catalepsy”. For the same compound, the “effect on spontaneous locomotion” value in [8] was “no influences”. The “inhibition of MK-801-induced hyperactivity at 3 mg/kg” value in data set [9] was “reduced the distance of mice movement”.
Regarding `Cn1c2c(c3ccccc31)CCN(CCCCNC(=O)c1cc3ccccc3[nH]1)C2` [42a], in [1], the inhibition constant (Ki) is greater than 10 µM and the inhibition at 10 µM worked out at 9.1 ± 16.4%. Also, in data set [2], affinity was put at a Ki of 0.0068 ± 0.0008 µM and the inhibition at 10 µM was 106 ± 1.3%.
In the case of `CCn1c2c(c3ccccc31)CCN(CCCCNC(=O)c1cc3ccccc3[nH]1)C2` [42b], in [1], the Ki is greater than 10 µM and the inhibition at 10 µM came out at 17.5 ± 1.5%. In data set [2], affinity was put at a Ki of 0.0129 ± 0.0021 µM and the inhibition at 10 µM stood at 106 ± 3.6%.
In the case of `Cn1c2c(c3ccccc31)CCN(CCCCNC(=O)c1ccc3nc[nH]c3c1)C2` [42e], the inhibition at 10 µM in data set [1] turned out to be 49.7 ± 1.2%. Besides, in data set [2], the affinity, expressed as Ki, was 0.203 µM and the inhibition at 10 µM was determined as 81.5 ± 0.6%.
The matching figures for `CCn1c2c(c3ccccc31)CCN(CCCCNC(=O)c1ccc3nc[nH]c3c1)C2` [42f]: 54.1 ± 0.1%, 0.3 µM and 80.6 ± 1.1%.
For the compound `Cn1c2c(c3ccccc31)CCN(CCCCNC(=O)c1ccc(-c3cccnc3)cc1)C2` [42g], the inhibition at 10 µM stood at 37.8 ± 1% in data set [1] and 69.6 ± 0.8% in data set [2].
As to `CCn1c2c(c3ccccc31)CCN(CCCCNC(=O)c1ccc(-c3cccnc3)cc1)C2` [42h], the inhibition at 10 µM in data set [1] was 28.9 ± 0.8%; in data set [2], 31.3 ± 0.6%.
As for `Cn1c2c(c3ccccc31)CCN(CCCCNC(=O)c1ccc3[nH]c(=O)[nH]c3c1)C2` [42i], in [1], the inhibition at 10 µM was 37.6 ± 0.2%. In data set [2], affinity was put at a Ki of 0.112 µM and the inhibition at 10 µM turned out to be 85.2 ± 0.5%.
The matching figures for `CCn1c2c(c3ccccc31)CCN(CCCCNC(=O)c1ccc3[nH]c(=O)[nH]c3c1)C2` [42j]: 48.8 ± 0.7%, 0.149 µM and 85.9 ± 0.07%.
For the compound `CN(C)C(=O)N[C@H]1CC[C@H](CCN2CCN(c3cccc(Cl)c3Cl)CC2)CC1` [Cariprazine, cariprazine, reference compound], the “effect … by hD2R, compound alone (agonist mode)” value in data set [4] is on record as “did not exhibit significant effects”. The “inhibition of apomorphine-induced climbing” value in data set [13] is reported as “dose-dependent inhibition”. In addition, in data set [9] (i.p., MK-801 0.3 mg/kg s.c., 60 min), the “inhibition of MK-801-induced hyperactivity” value is reported as “dose-dependently inhibited”.
In the case of `CNCC[C@H](Oc1cccc2ccccc12)c1cccs1` [DLX, duloxetine, reference compound], in data set [14], the “immobility time in the TST” value is reported as “robust decrease”. Also, in data set [15], the FST latency entry is given as “failed to prolong” and the “immobility time of FST” value is “robust decrease”.
Consider `CCCN1CCO[C@@H]2c3cc(O)ccc3OC[C@H]21` [PD128907, reference compound], for which the “effect … by hD3R, compound alone (agonist mode)” value in [3] was “full ERK1/2 phosphorylation”. Also, the “effect … by hD2R, compound alone (agonist mode)” value in data set [4] is listed as “but not CHO-hD2R cells”. Also, the Ki in [16] is 0.001 µM.
As to `c1ccc2c(c1)[nH]c1ccc(CNCCCn3ccnc3)cc12` [compound 8], the inhibition at 10 µM in data set [1] was 33.2 ± 17.5%; in [2], 54.2 ± 7.7%.
As to `NCCc1ccc(O)c(O)c1` [dopamine, reference compound], the “effect … by hD2R, compound alone (agonist mode)” value in data set [4] is “significantly increased”.
